Results reported in patent US20260356821A1, “SOLID FORMS OF AN ERBB INHIBITOR” (Black Diamond Therapeutics, Inc., priority 2023, published 2026).
≈ marks a conversion by molar mass, not a printed value. Entries after “also recorded” stand apart in the source; their conditions may differ.

What was measured:
Format in all cases: physicochemical
[1] = Bulk Stability (solid state; HPLC purity, color, XRPD)
Experimental: (§1) X-ray Powder Diffractometer (XRPD): XRPD analysis was performed using a Bruker D8 Advance X-ray powder diffractometer. Analysis was performed using parameters as set forth below.
(§2) High Performance Liquid Chromatograph (HPLC): HPLC analysis was performed using SHIMADZU LC-20AD/Agilent 1260 infinity II Binary Pump. Analysis was performed using parameters as set forth below.
Bulk Stability: Form M was evaluated for bulk stability studies. The bulk stability study was conducted in 3 conditions including 25 °C/92% RH in an open container, 40 °C/75% RH in an open container and 60 °C in a tight container for 1 week, 2 weeks and 4 weeks, respectively.

[2] = Hygroscopicity by DVS; settings: 25 °C
Experimental: as §1
Dynamic Vapor Sorption (DVS): DVS analysis was performed using Intrinsic. Analysis was performed using parameters as set forth below.
Hygroscopicity: The hygroscopicity for Form M was examined by DVS.

[3] = Solubility in aqueous media, 37 °C
Experimental: as §1, §2
Solubility: 6.39 mg of the L-malate salt Form M (equal to 4 mg free base) was weighed into an 8 mL vial. 2 mL of aqueous media was added, respectively. The suspension was stirred at 37 °C with 400 rpm for 2 h and 24 h. The suspension was taken out after 2 h and 24 h and then centrifuged at 14,000 rpm for 5 min. The supernatant was analyzed by HPLC. The pH of the supernatant was tested. The solids obtained (wet cakes) were characterized by XRPD. Table 3 summarizes the observation of the solubility study.

[4] = Crystallinity after drying under vacuum
Experimental: as §1
To explore further optimization of the crystallinity of the salt, about 25 mg of dry cake were re-equilibrated in 7 different solvents for 3 days. Solids obtained were analyzed by XRPD and 1H-NMR. […]

[5] = 25 °C/92% RH, open container, 1 week
[6] = 40 °C/75% RH, open container, 1 week
[7] = 40 °C/75% RH, open container, 2 weeks
[8] = 40 °C/75% RH, open container, 4 weeks
[9] = 60 °C, tight container, 2 weeks

Bulk (XRPD) [1, 5]: No form change (Agglomeration) | Color [1, 5]: No change of color | Color ([1]; 25 °C/92% RH, open container, 2 weeks): No change of color | Color ([1]; 25 °C/92% RH, open container, 4 weeks): No change of color | Bulk (XRPD) [1, 6]: No form change | Color [1, 6]: No change of color | Bulk (XRPD) [1, 7]: No form change | Color [1, 7]: No change of color | Bulk (XRPD) [1, 8]: No form change | Color [1, 8]: No change of color | Bulk (XRPD) ([1]; 60 °C, tight container, 1 week): No form change (Crystallinity decreased) | Color ([1]; 60 °C, tight container, 1 week): No change of color | Bulk (XRPD) [1, 9]: No form change (Crystallinity decreased) | Color [1, 9]: No change of color | Color ([1]; 60 °C, tight container, 4 weeks): No change of color | Initial Purity by HPLC ([1]; initial, before storage): 94.0% | Desorp. (%) ([2]; 0% RH, first desorption): 0.0% | Sorp. (%) ([2]; 0% RH, second sorption): 0.0% | Desorp. (%) ([2]; 10% RH, first desorption): 1.4% | Sorp. (%) ([2]; 10% RH, second sorption): 0.6% | Desorp. (%) ([2]; 20% RH, first desorption): 2.5% | Sorp. (%) ([2]; 20% RH, second sorption): 1.4% | Desorp. (%) ([2]; 30% RH, first desorption): 3.6% | Sorp. (%) ([2]; 30% RH, second sorption): 2.2% | Desorp. (%) ([2]; 40% RH, first desorption): 5.0% | Sorp. (%) ([2]; 40% RH, first sorption): 4.1% | Desorp. (%) ([2]; 40% RH, second desorption): 5.2% | Sorp. (%) ([2]; 40% RH, second sorption): 3.1% | Desorp. (%) ([2]; 50% RH, first desorption): 6.1% | Sorp. (%) ([2]; 50% RH, first sorption): 4.4% | Desorp. (%) ([2]; 50% RH, second desorption): 6.4% | Sorp. (%) ([2]; 50% RH, second sorption): 4.2% | Desorp. (%) ([2]; 60% RH, first desorption): 7.4% | Sorp. (%) ([2]; 60% RH, first sorption): 4.9% | Desorp. (%) ([2]; 60% RH, second desorption): 7.4% | Sorp. (%) ([2]; 60% RH, second sorption): 5.6% | Desorp. (%) ([2]; 70% RH, first desorption): 9.3% | Sorp. (%) ([2]; 70% RH, first sorption): 5.6% | Desorp. (%) ([2]; 70% RH, second desorption): 8.7% | Sorp. (%) ([2]; 70% RH, second sorption): 7.5% | Desorp. (%) ([2]; 80% RH, first desorption): 13.5% | Sorp. (%) ([2]; 80% RH, first sorption): 6.9% | Desorp. (%) ([2]; 80% RH, second desorption): 11.4% | Sorp. (%) ([2]; 80% RH, second sorption): 9.7% | Desorp. (%) ([2]; 90% RH, first desorption): 29.5% | Sorp. (%) ([2]; 90% RH, first sorption): 15.3% | Desorp. (%) ([2]; 90% RH, second desorption): 20.9% | Sorp. (%) ([2]; 90% RH, second sorption): 15.8% | Desorp. (%) ([2]; 95% RH, first desorption): 41.2% | Sorp. (%) ([2]; 95% RH, first sorption): 41.2% | Desorp. (%) ([2]; 95% RH, second desorption): 31.5% | Sorp. (%) ([2]; 95% RH, second sorption): 31.5% | XRPD after DVS test ([2]; after cycle 40-95-0-95-40% RH): No form change | DVS ([2]; at 70% RH): 1.5% at 70% RH | DVS ([2]; at 95% RH): 37.1% at 95% RH | Solubility ([3]; FaSSIF-v1, pH 6.5, 37 °C, 2 h): Degradation | pH of the supernatant ([3]; FaSSIF-v1, pH 6.5, 37 °C, 2 h): pH 4.9 | Solubility ([3]; FaSSIF-v1, pH 6.5, 37 °C, 24 h): Degradation | pH of the supernatant ([3]; FaSSIF-v1, pH 6.5, 37 °C, 24 h): pH 4.8 | Solubility ([3]; FeSSIF-v1, pH 5.0, 37 °C, 2 h): Degradation | pH of the supernatant ([3]; FeSSIF-v1, pH 5.0, 37 °C, 2 h): pH 4.9 | Solubility ([3]; FeSSIF-v1, pH 5.0, 37 °C, 24 h): Degradation | pH of the supernatant ([3]; FeSSIF-v1, pH 5.0, 37 °C, 24 h): pH 4.8 | pH of the supernatant ([3]; SGF, pH 2.0, 37 °C, 2 h): pH 2.8 | solubility at 2 h ([3]; SGF, pH 2.0, 37 °C, 2 h): > 2000 µg/mL | pH of the supernatant ([3]; SGF, pH 2.0, 37 °C, 24 h): pH 2.6 | solubility at 24 h ([3]; SGF, pH 2.0, 37 °C, 24 h): > 2000 µg/mL | pH of the supernatant ([3]; Water, 37 °C, 2 h): pH 4.3 | solubility at 2 h ([3]; Water, 37 °C, 2 h): 1490 µg/mL (≈ 2.65 mM) | pH of the supernatant ([3]; Water, 37 °C, 24 h): pH 4.3 | solubility at 24 h ([3]; Water, 37 °C, 24 h): 1780 µg/mL (≈ 3.17 mM) | solubility at 2 h ([3]; aqueous buffer, pH 4.5 (50 mM) acetate buffer, 37 °C, 2 h): > 2000 µg/mL | solubility at 24 h ([3]; aqueous buffer, pH 4.5 (50 mM) acetate buffer, 37 °C, 24 h): > 2000 µg/mL | solubility at 2 h ([3]; aqueous buffer, pH 6.8 (50 mM) phosphate buffer, 37 °C, 2 h): 183 µg/mL (≈ 0.326 mM) | solubility at 24 h ([3]; aqueous buffer, pH 6.8 (50 mM) phosphate buffer, 37 °C, 24 h): 189 µg/mL (≈ 0.336 mM) | pH of the supernatant ([3]; pH 1.0 (0.1N HCl), 37 °C, 2 h): pH 0.9 | solubility at 2 h ([3]; pH 1.0 (0.1N HCl), 37 °C, 2 h): > 2000 µg/mL | pH of the supernatant ([3]; pH 1.0 (0.1N HCl), 37 °C, 24 h): pH 0.8 | solubility at 24 h ([3]; pH 1.0 (0.1N HCl), 37 °C, 24 h): > 2000 µg/mL | pH of the supernatant ([3]; pH 4.5 (50 mM) acetate buffer, 37 °C, 2 h, marked *): pH 4.5* | pH of the supernatant ([3]; pH 4.5 (50 mM) acetate buffer, 37 °C, 24 h): pH 4.4 | pH of the supernatant ([3]; pH 6.8 (50 mM) phosphate buffer, 37 °C, 2 h): pH 6.2 | pH of the supernatant ([3]; pH 6.8 (50 mM) phosphate buffer, 37 °C, 24 h): pH 6.3 | crystallinity after drying [4]: crystallinity decreased
SMILES: CN1C[C@H]2C[C@@]2(C#Cc2cc3ncnc(Nc4cccc(Cl)c4F)c3cc2NC(=O)/C=C/CN2CCOCC2)C1 [Form M, (E)-N-(4-((3-chloro-2-fluorophenyl)amino)-7-(((1R,5S)-3-methyl-3-azabicyclo[3.1.0]hexan-1-yl)ethynyl)quinazolin-6-yl)-4-morpholinobut-2-enamide]
Bulk (XRPD) ([1]; 25 °C/92% RH, open container, 2 weeks, no form change after dried under ambient condition): Sticky sample;; also recorded: No form change after dried under ambient | Bulk (XRPD) ([1]; 25 °C/92% RH, open container, 4 weeks, no form change after dried under ambient condition): Sticky sample;; also recorded: No form change after dried under ambient | Bulk (XRPD) ([1]; 60 °C, tight container, 4 weeks, (Crystallinity decreased)): No form change; also recorded: (Crystallinity decreased)
